# Patent publication US11629105B2, “Plant treatment composition” (Croda International Plc, priority 2016, dated 2023)
# Like-named read-outs stand apart in the source and are kept apart here.
# Legend:
# [1] = Stability of emulsion of urea derivative solution with ATLOX 4991; assay type: physicochemical
# [2] = Method: The solubility of other substituted ureas and substituted thioureas was tested in this solvent.
# [3] = Water solubility of solvents (OECD 105); assay type: physicochemical; details: solvent in water; for solubility: water, thermodynamic from solid
# [4] = Solvent screening for ability to dissolve diphenyl urea (DPU); assay type: physicochemical; details: solubility of diphenyl urea (DPU) in the named solvent
# [5] = 2% w/w urea derivative in AGNIQUE AMD10
smiles,measurement,setting,value
"CCN(C(=O)N(CC)c1ccccc1)c1ccccc1 [1,3-diethyl-1,3-diphenyl urea]",Emulsion with ATLOX 4991 stable? (4 wks ambient),[1],Yes
same,Fully Soluble in AGNIQUE AMD10? (2% w/w urea derivative),[2]; [5],Yes
"CCNC(=O)NCC [1,3-diethylurea]",Emulsion with ATLOX 4991 stable? (4 wks ambient),[1],Yes
same,Fully Soluble in AGNIQUE AMD10? (2% w/w urea derivative),[2],Yes
"CCCCCCCCCCCCN1CCCC1=O [1-Dodecyl-2-pyrrolidone, 1-dodecyl-2-pyrrolidone]",solubility,[3],< 2000 µg/mL
"CCCCCCCCCC(=O)N(C)C [AGNIQUE ® AMD10, Capric acid dimethylamide]",Water solubility (OECD 105),[3],574 µg/mL
same,solubility,[3],< 1000 µg/mL
"CCCCCCCC(=O)OC [AGNIQUE ® ME890, Methyl octanoate]",DPU Solubility comments,[4],Effectively insoluble
"CCCCOC(=O)CCCCC(=O)OCCCC [CETIOL ® B, Dibutyladipate]",DPU Solubility comments,[4],Effectively insoluble
"CC(O)COc1ccccc1 (stereo not drawn) [DOWANOL ™ PPh, 1-phenoxypropan-2-ol]",DPU Solubility comments,[4],Effectively insoluble
"CCCCOC(C)COC(C)COC(C)CO (stereo not drawn) [DOWANOL ™ TPnB, Tripropylene glycol n-Butyl ether]",DPU Solubility comments,[4],Effectively insoluble
"O=C(NCO)NCO [N,N′-bis(hydroxymethyl) urea]",Fully Soluble in AGNIQUE AMD10? (2% w/w urea derivative),[2],No
same,solubility in AGNIQUE AMD10,[2],< 2 % w/w
"CCCCNC(=S)NCCCC [N,N′-dibutylthiourea]",Emulsion with ATLOX 4991 stable? (4 wks ambient),[1],Yes
same,Fully Soluble in AGNIQUE AMD10? (2% w/w urea derivative),[2],Yes
"O=C(NC1CCCCC1)NC1CCCCC1 [N,N′-dicyclohexyl urea]",Fully Soluble in AGNIQUE AMD10? (2% w/w urea derivative),[2]; [5],No
"O=C1NCCCN1 [N,N′-trimethylene urea]",Fully Soluble in AGNIQUE AMD10? (2% w/w urea derivative),[2],No
same,solubility in AGNIQUE AMD10,[2],< 2 % w/w
CCCCCCCCN1CCCC1=O [N-octylpyrrolidone],solubility,[3],< 2000 µg/mL
NC(=O)Nc1ccccc1 [N-phenyl urea],Emulsion with ATLOX 4991 stable? (4 wks ambient),[1],Yes
same,Fully Soluble in AGNIQUE AMD10? (2% w/w urea derivative),[2],Yes
